The text below walks through data of patent US20220087983A1, “ACTIVATING PYRUVATE KINASE R” (FORMA Therapeutics, Inc., priority 2020, published 2022).

Data set [1] deals with T1, wt-PKR in mature human erythrocytes (Homo sapiens, UniProt P30613).
T1 construct: host or cells: purified human RBCs from donors
The data set can be described thus: Cell assay: PKR activation in human RBCs (Biovision Pyruvate Kinase Assay). The class given is cell-based. The protocol:
The activation of wt-PKR by Compound 1 in mature human erythrocytes ex vivo was evaluated in purified RBCs purchased from Research Blood Components. Cells treated with Compound 1 for 3 hr in glucose-containing media were washed, lysed, and assayed using a Biovision Pyruvate Kinase Assay (K709-100). The assay was repeated multiple times to account for donor-to-donor variability and the relatively narrow dynamic range.

A short description of data set [2]: Phase 1 SAD/MAD/food effect: plasma pharmacokinetics in healthy volunteers. The class given is in vivo, human. An excerpt: This is a first-in-human (FIH), Phase 1 study of Compound 1 that will characterize the safety, PK, and PD of Compound 1 after a single dose and after repeated dosing first in healthy adult volunteers and then in adolescents or adults with sickle cell disease. Initially, a dose range of Compound 1 in single ascending dose (SAD) escalation cohorts will be explored in healthy subjects. Enrollment of healthy subjects into 2-week multiple ascending dose (MAD) escalation cohorts will be initiated once the safety and PK from at least two SAD cohorts is available to inform the doses for the 2-week MAD portion of the study. The MAD cohorts will then run in parallel to the single dose cohorts. A single dose cohort is planned to understand food effects (FE) on the PK of Compound 1. […] Multiple dose studies in SCD subjects will then be initiated upon completion of MAD studies in healthy volunteers. Compound 1 will be administered in 25 mg and 100 mg tablets delivered orally, prepared as described in Example 1, Step 7.
In this study, SAD/MAD cohorts are randomized (3 to 1) to receive Compound 1 or placebo (P). Compound 1 was evaluated first in 4 healthy SAD cohorts and 4 healthy MAD (14-day dosing period) cohorts. Based on the safety, and PK/PD profile from HS, Compound 1 is then evaluated in 1 SCD SAD cohort and 2 SCD MAD cohorts. Specifically, based on the safety and pharmacokinetic/pharmacodynamics (PK/PD) profile in healthy volunteer studies, Compound 1 is evaluated in patients (pts) with SCD, first in a single dose (SD or SAD) cohort and then in multiple-dose (MD or MAD) cohorts (14-day and 12-week). Safety assessments include AEs, vital signs, ECGs and laboratory parameters. PK/PD blood sampling was performed on Day 1 (SAD/MAD) and Day 14 (MAD) and up to 72 h after the last dose and at the end-of-study visit. PD parameters included 2,3-DPG, ATP, and p50 in all cohorts with additional PD studies (including oxygen scan) performed only in the SCD cohorts. PD parameters included 2,3-DPG, ATP, p50, RBC deformability with controlled deoxygenation and reoxygenation (Lorrca® oxygen scan) and varying osmolality (Lorrca® osmoscan)). To maintain study blind, pt identifiers were removed when needed.
Primary Outcome Measures: • 1. Incidence, frequency, and severity of adverse events (AEs) per CTCAE v5.0 of a single ascending dose and multiple ascending doses of Compound 1 in adult healthy volunteers and SCD patients. Incidence of abnormal laboratory test results (clinical chemistry, endocrine hematology, urinalysis). Change from baseline in vital signs (blood pressure, respiratory rate, heart rate, and oral temperature). Incidence of treatment-emergent clinically significant abnormal findings in ECGs. • [Time Frame: Up to 3 weeks of monitoring] • 2. […] Area under the plasma concentration-time curve from time zero until the 24-hour time point (AUC0-24) • [Time Frame: Up to 3 weeks of testing] • 5. Area under the plasma concentration-time curve from time zero until last quantifiable time point (AUC0-last) • [Time Frame: Up to 3 weeks of testing] • 6. Area under the plasma concentration-time curve from time zero to infinity (AUC0-inf) • [Time Frame: Up to 3 weeks of testing] • 7. […] Apparent volume of distribution (Vd/F) • [Time Frame: Up to 3 weeks of testing] • 10. Terminal disposition rate constant (Lz) • [Time Frame: Up to 3 weeks of testing] • 11.
Four healthy SAD cohorts were evaluated at doses of 200, 400, 700, and 1000 mg, and four healthy MAD cohorts received 200 to 600 mg total daily doses for 14 days at QD or BID dosing (100 mg BID, 200 mg BID, 300 mg BID, and 400 mg QD). In the food effect (FE) cohort, 10 healthy subjects received 400 mg of Compound 1 QD with and without food.

The target in a further data set is T2, CYP1A2 (Homo sapiens, UniProt P05177).
T2 construct: from tissue; host or cells: human liver microsomes
T2 sequence (P05177 1-516): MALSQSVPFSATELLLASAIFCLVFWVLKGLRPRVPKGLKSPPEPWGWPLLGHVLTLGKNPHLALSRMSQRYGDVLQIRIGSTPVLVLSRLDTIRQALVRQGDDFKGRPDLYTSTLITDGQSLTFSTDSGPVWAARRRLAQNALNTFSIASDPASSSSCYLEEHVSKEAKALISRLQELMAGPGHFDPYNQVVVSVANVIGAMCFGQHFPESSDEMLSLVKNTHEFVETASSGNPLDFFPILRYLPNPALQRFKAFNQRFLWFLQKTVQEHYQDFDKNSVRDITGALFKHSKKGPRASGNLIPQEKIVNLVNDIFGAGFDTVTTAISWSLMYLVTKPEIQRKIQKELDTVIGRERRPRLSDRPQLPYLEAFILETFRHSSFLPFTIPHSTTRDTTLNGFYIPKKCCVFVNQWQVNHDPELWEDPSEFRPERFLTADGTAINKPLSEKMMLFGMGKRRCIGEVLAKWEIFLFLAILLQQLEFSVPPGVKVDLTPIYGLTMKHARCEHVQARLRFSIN
The data set can be described thus: Single substrate DDI assay, reversible CYP inhibition in human liver microsomes. The class given is in vitro ADME. On the technique in general: Liver microsomes are vesicles of endoplasmic reticulum, rich in cytochrome P450 enzymes.

Another data set has as its target T3, CYP2D6 (Homo sapiens, UniProt P10635).
T3 construct: from tissue; host or cells: human liver microsomes
The description is as above. The class given is in vitro ADME.

Data set [3] can be described thus: Phase 1: hematologic and hemolytic parameters in SCD patients. It is filed as in vivo, human. To be noted: single 700 mg dose, 24 h.
The mark [4] stands for this setting: human, plasma, oral, HV (N = 6), single dose 700 mg, geometric mean (geometric CV).

“And” between values parts separate entries of the source, which are not always exact repeats. Identical values can stand only once. Like-named read-outs stand apart in the source and are kept apart here.

T1 sequence (P30613 whole entry): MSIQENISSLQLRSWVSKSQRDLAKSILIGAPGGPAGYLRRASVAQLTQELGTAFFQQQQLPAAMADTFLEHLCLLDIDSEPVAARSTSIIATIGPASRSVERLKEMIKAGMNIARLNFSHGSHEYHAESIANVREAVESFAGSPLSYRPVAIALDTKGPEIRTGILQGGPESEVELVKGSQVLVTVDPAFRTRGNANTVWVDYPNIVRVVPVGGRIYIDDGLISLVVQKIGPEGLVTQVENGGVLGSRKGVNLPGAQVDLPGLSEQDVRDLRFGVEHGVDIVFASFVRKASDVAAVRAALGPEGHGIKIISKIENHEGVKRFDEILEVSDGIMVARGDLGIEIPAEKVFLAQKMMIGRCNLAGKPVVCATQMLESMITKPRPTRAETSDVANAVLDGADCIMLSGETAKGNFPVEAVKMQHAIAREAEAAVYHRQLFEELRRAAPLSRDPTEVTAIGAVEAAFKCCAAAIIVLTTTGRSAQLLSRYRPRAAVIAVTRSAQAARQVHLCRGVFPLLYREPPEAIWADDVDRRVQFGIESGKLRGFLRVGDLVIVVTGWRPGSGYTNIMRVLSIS
T3 sequence (P10635 whole entry): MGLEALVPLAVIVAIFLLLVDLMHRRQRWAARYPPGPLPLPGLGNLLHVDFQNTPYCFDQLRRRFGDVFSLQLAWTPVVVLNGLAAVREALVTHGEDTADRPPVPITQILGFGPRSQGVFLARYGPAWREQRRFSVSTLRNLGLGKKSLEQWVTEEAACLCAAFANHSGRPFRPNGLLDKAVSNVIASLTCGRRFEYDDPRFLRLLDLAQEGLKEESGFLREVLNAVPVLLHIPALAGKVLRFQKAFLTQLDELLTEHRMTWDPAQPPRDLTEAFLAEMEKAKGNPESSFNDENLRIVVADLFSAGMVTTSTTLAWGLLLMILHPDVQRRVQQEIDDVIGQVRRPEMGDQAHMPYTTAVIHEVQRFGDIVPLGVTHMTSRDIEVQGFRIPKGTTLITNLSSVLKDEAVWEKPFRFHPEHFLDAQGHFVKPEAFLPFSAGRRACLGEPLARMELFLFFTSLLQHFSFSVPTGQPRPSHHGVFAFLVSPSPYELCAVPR

Take `O=C([C@H](CO)c1ccccc1)N1CC2=C(C1)CN(S(=O)(=O)c1cnc3c(c1)OCCO3)C2` (single isomer, unassigned) [Compound 1]: in data set [1] (Cell Assay of Example 4), the EC50 (usually the concentration giving half of the maximal effect) is < 0.5 µM. In data set [1] (human RBCs, 3 hr, individual replicates 1-4), the “Max − Min (%)” value is <150% and <100% and <50%. The “Mean maximum activation increase (Max − Min)” value in data set [1] (human RBCs, 3 hr, mean of replicates) is <100%. In data set [2] (food effect cohort, 400 mg), the “exposure under fed/fasted conditions” value was “similar”. In data set [2] (healthy subject studies), the “PK linearity and time dependence” value is “linear and time-independent PK”. Also, in data set [2] (healthy subjects, 14 days of dosing), the “observed clearance on day 1 and day 14” value is “unchanged”. Also, the half-life in data set [2] (human, plasma, oral, 700 mg, HV (N = 6), single dose 700 mg, geometric mean (geometric CV), read-out: t1/2 (converted)) was 13.3 h; in data set [2] (human, plasma, oral, biphasic PK profile, read-out: terminal half-life), 12 to 14 h; in data set [2] (human, plasma, oral, healthy volunteers, single doses up to 700 mg, read-out: T1/2), 11 to 15 h; in data set [2] (human, plasma, oral, HS and SCD subjects similar, read-out: T½), 10 to 13 h. In addition, the AUC(0-t) in data set [2] (human, plasma, oral, HS and SCD subjects similar, read-out: AUC0-24) was ~7000 ng·h/mL. In data set [2] (setting [4]), this molecule showed an AUC(0-inf) of 7000 ng·h/mL. The Cmax in data set [2] (setting [4]) worked out at 2200 ng/mL. For the same molecule, in data set [2] (human, plasma, oral, HV (N = 6), single dose 700 mg, median [min, max]), the Tmax was found to be 0.5 h. In addition, the 50% inhibitory concentration (IC50) against CYP1A2 and at CYP2D6 was > 30 µM each time. In data set [3], the “mean Hb difference versus placebo” value is listed as ~0.9 g/dL.
